The results in this text go back to patent US20090156511A1, “Agent for Enhancing Antiseptic Power” (Kao Corporation, priority 2005, published 2009).

The test system of the experiment is Staphylococcus aureus IF013276, Escherichia coli IF03972, Pseudomonas aeruginosa IF013275. Put plainly: Antibacterial test (inoculated composition held at 30° C., colony counting method). Type of experiment: cell-based. Here is the method:
The following bacteria were suspended in a physiological saline such that the number of bacteria or spores was 10^8 CFU/mL. to prepare a bacteria-containing solution. Then, 0.005 mL of the thus obtained bacteria-containing solution was inoculated into 5 mL of the composition to be tested such that the bacteria concentration therein was […]. The thus inoculated composition was held at 30° C. for a predetermined period of time to measure the change in number of bacteria with time by the calculation using a colony counting method. The antibacterial property of the composition was evaluated according to the following four ratings.
Staphylococcus aureus IF013276
Pseudomonas aeruginosa IF013275
⊚: Sufficiently high antibacterial property (number of bacteria was decreased by […] or more)
◯: High antibacterial property (number of bacteria was decreased by […])
Δ: Low antibacterial property (number of bacteria was decreased by 10^2 to 10^1)

Take α,β-2-hexyldecyl galactoside: for the setting “0.1% by mass without antiseptic agent, with polyoxyethylene (60) hydrogenated castor oil, Table 2, after 7 days”, the “antibacterial property by itself” value was “no antibacterial property”.

For α,β-n-dodecyl galactoside, the “antibacterial property by itself” value (0.1% by mass in water without antiseptic agent, Table 1, after 9 days) is reported as “no antibacterial property”.
